# Reference: patent publication US20050215555A1, “Inhibitors of 5-HT2A receptor” (priority 2003, published 2005)
# Assays:
# [1] = target: T1, 5-HT1A (Homo sapiens, UniProt P08908); assay: Radioligand displacement binding (3H-8-OH-DPAT), SPA or filter binding; settings: recombinant human receptor
# T1 construct: expressed in transfected cells; host or cells: CHO or HEK293
# T1 sequence (P08908 1-422): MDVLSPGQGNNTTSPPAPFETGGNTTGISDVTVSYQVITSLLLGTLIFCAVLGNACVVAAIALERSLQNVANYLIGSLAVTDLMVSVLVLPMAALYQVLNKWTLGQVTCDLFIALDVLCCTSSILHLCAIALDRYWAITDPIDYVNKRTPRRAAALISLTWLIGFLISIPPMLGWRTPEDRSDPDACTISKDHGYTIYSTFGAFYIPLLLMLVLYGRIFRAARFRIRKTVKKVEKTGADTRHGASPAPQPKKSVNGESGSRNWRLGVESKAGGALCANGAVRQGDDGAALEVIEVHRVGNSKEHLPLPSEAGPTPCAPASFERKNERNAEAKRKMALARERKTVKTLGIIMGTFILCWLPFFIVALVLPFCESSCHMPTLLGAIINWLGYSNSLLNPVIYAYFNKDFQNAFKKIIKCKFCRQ
# Protocol: (§1) The affinity constants of compounds were determined using recombinant human serotonin receptors stably expressed in fibroblast cell lines (CHO or HEK293), measuring the ability of the compounds to displace radio-labelled tracers using scintillation proximity assays or filter binding assays. For 5-HT1B , 5-HT2B and 5-HT2C receptor binding studies ^3H-LSD was used as radio ligand, for 5-HT2 A and 5-HT6 ^3H-5-HT was used as tracer, while the binding constant to 5-HT1A was determined using ^3H-8-OH-DPAT. The non-selective serotonin receptor antagonist mianserine was used as reference substance.
# (§2) The calculation of the Ki values for the inhibitors was performed by use of Activity Base. The Ki value is calculated from IC50 using the Cheng Prushoff equation (with reversible inhibition that follows the Michaelis-Menten equation): […] [Cheng, Y. C.; Prushoff, W. H. Biochem. Pharmacol. 1973, 22, 3099-3108].
# [2] = target: T2, 5-HT2A (Homo sapiens, UniProt P28223); assay: Radioligand displacement binding (3H-5-HT), SPA or filter binding; parameters: expressed in transfected cells; host or cells: CHO or HEK293
# Protocol: as §1, §2
# [3] = target: T3, 5-HT1B (Homo sapiens, UniProt P28222); assay: Radioligand displacement binding (3H-LSD), SPA or filter binding; settings: recombinant human receptor
# T3 construct: expressed in transfected cells; host or cells: CHO or HEK293
# Protocol: as §1, §2
# [4] = target: T4, 5-HT2B (Homo sapiens, UniProt P41595); assay: as above; settings: recombinant human receptor
# T4 construct: expressed in transfected cells; host or cells: CHO or HEK293
# Protocol: as §1, §2
# [5] = target: T5, 5-HT2C (Homo sapiens, UniProt P28335); assay: as above; parameters: expressed in transfected cells; host or cells: CHO or HEK293; settings: recombinant human receptor
# T5 sequence (P28335 33-458): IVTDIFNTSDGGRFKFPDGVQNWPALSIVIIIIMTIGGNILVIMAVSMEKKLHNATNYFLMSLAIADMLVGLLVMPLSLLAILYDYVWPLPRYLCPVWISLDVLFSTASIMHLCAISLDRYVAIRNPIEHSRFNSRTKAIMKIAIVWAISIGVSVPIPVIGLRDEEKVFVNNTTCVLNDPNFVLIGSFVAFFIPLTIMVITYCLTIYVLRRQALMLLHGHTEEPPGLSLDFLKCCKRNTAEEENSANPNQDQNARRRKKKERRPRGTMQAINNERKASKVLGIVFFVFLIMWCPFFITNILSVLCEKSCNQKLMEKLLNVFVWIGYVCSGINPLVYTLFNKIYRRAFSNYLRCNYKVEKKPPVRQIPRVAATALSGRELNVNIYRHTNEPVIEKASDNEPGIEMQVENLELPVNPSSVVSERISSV
# Protocol: as §1, §2
# [6] = target: T2, 5-HT2A; assay: FLIPR functional assay (primary screening and IC50 determination), inhibition of 5-HT evoked peak response; type: cell-based; parameters: expressed in transfected cells; host or cells: CHO; settings: CHO cells expressing 5-HT2A, 15 min pre-incubation, Ki calculated from IC50 (Cheng Prushoff)
# Protocol: Primary screening and IC50 determination
# CHO cells expressing 5-HT2A receptors seeded in 384 well plates are pre-loaded with Fluo-4AM fluorescent dye and then incubated with compound (10 μM for primary screen) for 15 min. Fluorescent intensity is recorded using a Fluorometric imaging plate reader (FLIPR384, Molecular Devices) and inhibition of the peak response evoked by 5-HT (EC70 concentration) is calculated.
# IC50 determinations are performed utilizing the same finctional assay as described for primary screening (15 min antagonist compound pre-incubation), applying the compounds in the dose range of 3 nM to 10 μM.
# as §2
# [7] = target: T5, 5-HT2C; assay: FLIPR based assay, effect on 10 nM 5-HT induced Ca2+-currents; type: cell-based; settings: functional FLIPR assays
# Protocol: The activity at 5-HT2C receptors was studied in a FLIPR based assay, measuring the effect of compounds on 10 nM 5-HT induced Ca^2+-currents.
# [8] = target: T6, 5-HT6 (Homo sapiens, UniProt P50406); assay: Radioligand displacement binding (3H-5-HT), SPA or filter binding; settings: recombinant human receptor
# T6 construct: expressed in transfected cells; host or cells: CHO or HEK293
# Protocol: as §1, §2
# [9] = equilibrium displacement binding, n=3, unit inferred, read-out: Ki values for the 5-HT2A receptor subtype
# [10] = recombinant human receptor, 3H-5-HT, read-out: Binding Ki (nM) 5-HT2A
# T2 sequence (P28223 whole entry): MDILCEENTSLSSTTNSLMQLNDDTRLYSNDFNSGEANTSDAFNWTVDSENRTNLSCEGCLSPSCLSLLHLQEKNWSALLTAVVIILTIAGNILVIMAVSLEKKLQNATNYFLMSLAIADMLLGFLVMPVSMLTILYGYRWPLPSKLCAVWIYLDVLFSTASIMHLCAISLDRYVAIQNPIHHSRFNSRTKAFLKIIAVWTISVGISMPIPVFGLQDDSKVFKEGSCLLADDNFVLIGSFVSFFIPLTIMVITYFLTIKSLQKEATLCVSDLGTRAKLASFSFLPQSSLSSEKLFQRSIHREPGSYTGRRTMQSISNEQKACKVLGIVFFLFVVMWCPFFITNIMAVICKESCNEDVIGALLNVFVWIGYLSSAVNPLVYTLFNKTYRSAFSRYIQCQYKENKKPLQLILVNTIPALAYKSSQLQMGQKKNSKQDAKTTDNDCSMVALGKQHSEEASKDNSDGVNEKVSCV
# T4 sequence (P41595 whole entry): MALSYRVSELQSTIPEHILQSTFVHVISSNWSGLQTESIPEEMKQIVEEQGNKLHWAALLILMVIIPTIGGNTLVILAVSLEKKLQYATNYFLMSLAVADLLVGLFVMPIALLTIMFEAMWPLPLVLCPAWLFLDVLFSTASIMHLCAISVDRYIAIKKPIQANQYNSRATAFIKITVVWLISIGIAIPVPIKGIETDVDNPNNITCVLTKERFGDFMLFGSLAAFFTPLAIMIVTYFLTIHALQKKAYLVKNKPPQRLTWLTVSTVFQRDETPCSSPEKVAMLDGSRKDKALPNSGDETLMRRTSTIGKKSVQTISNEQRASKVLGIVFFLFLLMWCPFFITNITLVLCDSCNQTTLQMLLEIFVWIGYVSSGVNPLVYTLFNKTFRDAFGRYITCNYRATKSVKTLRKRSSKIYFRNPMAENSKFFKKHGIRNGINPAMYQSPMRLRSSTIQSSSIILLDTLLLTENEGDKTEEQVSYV
# T6 sequence (P50406 whole entry): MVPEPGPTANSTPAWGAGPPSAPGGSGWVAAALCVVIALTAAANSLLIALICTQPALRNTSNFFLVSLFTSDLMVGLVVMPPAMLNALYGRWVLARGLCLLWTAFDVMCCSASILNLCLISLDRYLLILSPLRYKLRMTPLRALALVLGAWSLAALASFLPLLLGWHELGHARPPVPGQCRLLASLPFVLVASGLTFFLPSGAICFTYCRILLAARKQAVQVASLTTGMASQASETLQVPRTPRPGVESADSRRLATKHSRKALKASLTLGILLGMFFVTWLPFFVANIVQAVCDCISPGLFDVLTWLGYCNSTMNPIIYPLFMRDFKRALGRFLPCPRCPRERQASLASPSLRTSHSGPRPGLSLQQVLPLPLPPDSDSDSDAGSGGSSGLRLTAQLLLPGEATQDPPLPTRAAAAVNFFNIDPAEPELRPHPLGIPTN
# T3 sequence (P28222 whole entry): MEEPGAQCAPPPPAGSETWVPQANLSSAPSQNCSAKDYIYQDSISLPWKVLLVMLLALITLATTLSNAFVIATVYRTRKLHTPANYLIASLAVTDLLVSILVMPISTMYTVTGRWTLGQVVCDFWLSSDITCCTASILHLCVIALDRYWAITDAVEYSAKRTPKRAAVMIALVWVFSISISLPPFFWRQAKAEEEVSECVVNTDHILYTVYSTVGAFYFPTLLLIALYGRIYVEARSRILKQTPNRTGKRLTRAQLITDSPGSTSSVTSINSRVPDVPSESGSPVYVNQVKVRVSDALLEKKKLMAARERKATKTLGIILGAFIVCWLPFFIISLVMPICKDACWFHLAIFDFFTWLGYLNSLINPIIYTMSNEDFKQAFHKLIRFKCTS
SMILES,Ki [1] [nM],"Ki [2, 9] [nM]","Ki [2, 10] [nM]",Ki [3] [nM],Ki [4] [nM],Ki [5] [nM],Ki [6] [nM],selectivity at 5-HT2A versus the 5-HT2C receptor in terms of efficacy [7],Ki [8] [nM]
"Cc1ccn2c(C3CCN(CCc4ccccc4)CC3)nc(-c3ccccc3)c2c1 [Example 4, 7-methyl-1-phenyl-3-[1-(2-phenylethyl)piperidin-4-yl]imidazo[1,5-a]pyridine]",> 1000,14,13.6,> 1000,267,> 1000,8.2,highly selective,> 1000
c1ccc(CCN2CCC(c3nc(-c4ccccc4)c4ccccn34)CC2)cc1 [Example 2],> 1000,6,5.9,> 1000,444,> 1000,20.6,highly selective,> 1000
